According to patent publication US4710489A, “Glutathione delivery system” (Cornell Research Foundation, Inc., priority 1985, dated 1987):

Columns and labels:
[1] = tested on: GSH levels in the liver and in the kidney; assay: GSH levels in liver and kidney after 35S-labeled test compound, GSH synthesis inhibited by buthionine sulfoximine (Example 5); type: in vivo; conditions: mice, i.p. 7.5 mmol/kg, two hours after treatment, buthionine sulfoximine 2 mmol/kg 14 and 4 hours before dissection
Method: Groups of 3 or 4 mice, each having a body weight of 18 to 22g, were starved over a period of 12 hours and treated intraperitoneally with a dose of 7.5 mmol/kg of the test compound labeled by ^35 S (GSH labeled by ^35 S was used as the starting material). Two hours after the treatment, the test mice were dissected, and the liver and kidney were taken out. These organs were homogenized in 5 fold volume of 5% sulfosalicylic acid and centrifuged over a period of 5 minutes to give 0.05 ml of a supernatant fluid. The supernatant fluid was admixed with 0.95 ml of water and 4 ml of monofluorine scintillation fluid, and the ^35 S content was assayed by the use of an LKB scintillation counter. On the other hand, the supernatant fluid was treated with monobromobimane and subjected to HPLC to determine the amount of the test compound. The intracellular GSH synthesis was inhibited by administering intraperitoneally 2 mmol/kg of buthionine sulfoximine 14 hours and 4 hours before the dissection.

GSH level in the liver = GSH level in the liver after sublethal acetaminophen (Example 7); type: in vivo; conditions: acetaminophen 2.5 mmol/kg i.p.; for GSH level in the liver: starved mice, test compound 10 mmol/kg i.p. half an hour later
Method: Groups of three starved mice were intraperitoneally treated with 2.5 mmol/kg (less than the lethal dose) of acetaminophen, and half an hour later 10 mmol/kg of the test compound was intraperitoneally administered to the mice. […] When other thiols such as L-cysteine and L-cysteine methyl ester were administered under the same conditions, the GSH level in the liver was markedly low.

[2] = tested on: glutamic-pyruvic acid transaminase (GPT) activity in serum; assay: Serum GPT activity after acetaminophen (Example 9, Table 1); type: in vivo, Male ICR mice; conditions: half an hour after acetaminophen 2.5 mmol/kg, blood 8 hours after acetaminophen, ± SD
Method: Male ICR mice, each having a body weight of 30 to 40 g, were starved over a period of 15 hours and intraperitoneally treated with 2.5 mmol/kg of acetaminophen. The acetaminophen was used as a solution in Cremophore buffer (i.e. physiological saline solution containing 10% Cremophore and 1.5% ethanol). Half an hour later a designed amount of the test compound was intraperitoneally administered to the mice. The test compound was used as a solution in physiological saline adjusted to pH 6.5. […] Then, the glutamic-pyruvic acid transaminase (GPT) activity in serum was assayed. The results are shown in Table 1 as a percentage to that of the control group to which only acetaminophen was administered.
Note: Figure is a percentage of blood GPT activity to that of Control
Group (± Standard Deviation (n = 4 - 16)).

mice [3] = assay: Survival of starved mice after lethal dose of acetaminophen (Example 8); type: in vivo; conditions: acetaminophen 5 mmol/kg i.p., test compound 10 mmol/kg one hour later, 15 mice, 7 days
From the text: Starved mice were intraperitoneally treated with 5 mmol/kg (lethal dose) of acetaminophen and, one hour later, with 10 mmol/kg of the test compound.

[4] = tested on: GSH level in the liver and in the kidney; assay: GSH level in liver and kidney of starved mice (Example 6); type: in vivo; conditions: i.p. 10 mmol/kg, 2 to 3 hours after the administration
Method: The test compound was dissolved in sterile water to give a test solution. Groups of 3 mice, each having a body weight of 20 to 25 g, were starved over a period of 24 hours and treated intraperitoneally with a dose of 10 mmol/kg of the test compound. Mice were dissected by every two hours, and the liver and kidney were taken out. GSH analysis was performed on each of the organs.

[5] = tested on: glutathione level of the liver and kidney; assay: Glutathione levels of liver and kidney of fasted mice given glutathione ester or glutathione (Example 1, Comparative Example 1); type: in vivo; conditions: for glutathione in the kidney / glutathione level of the liver: fasted mice, i.p. 10 millimoles per kilogram, 2 hours after administration, vs saline controls
Method: A solution of the glutathione ester was prepared in aseptic water. […] At intervals of 2 hours, as shown in FIGS. 1(a) and (b), the animals were decapitated and the liver and kidney tissues were removed and analyzed for glutathione. Using groups of 3 mice each, values are given as means ±S.D.

[6] = tested on: level of liver glutathione; conditions: for glutathione level of the liver: fasted mice, acetaminophen 2.5 mmol/kg i.p., test compound 10 mmol/kg one-half hour later
Method: In this example, fasted mice were injected intraperitoneally with acetaminophen (2.5 mmol/kg), and one-half hour later (indicated by arrow in FIG. 3), they were given GSH monomethyl ester, GSH, L-cysteine, L-cysteine methyl ester (10 mmol/kg) or an equivalent volume of 0.15 M NaCl (control). Tissue GSH levels were determined at the indicated intervals on groups (3) of mice; values are means ±S.D.

mice [7] = tested on: mice
[8] = tested on: glutathione levels of the liver and kidney; assay: Glutathione levels of liver and kidney of mice pretreated with buthionine sulfoximine (Example 2); type: in vivo
From the text: Controls were again given saline, with tissue levels of GSH being determined at the indicated intervals. Values are means ±S.D., using groups of 3 mice each.

[9] = buthionine sulfoximine 2 mmol/kg, before ester
[10] = mice pretreated with 2 mmol/kg buthionine sulfoximine, ester 10 mmol/kg i.p. 4 hours after the inhibitor

| Compound | GSH level in the kidney [1] | GSH level in the liver [1] | GSH level in the liver (GSH level in the liver) | percentage of blood GPT activity to that of Control Group ([2]; Dosage 0.01 mmol/kg i.p.) | percentage of blood GPT activity to that of Control Group ([2]; Dosage 0.1 mmol/kg i.p.) | percentage of blood GPT activity to that of Control Group ([2]; Dosage 0.3 mmol/kg i.p.) | percentage of blood GPT activity to that of Control Group ([2]; Dosage 1 mmol/kg i.p.) | survival (mice [3]) | GSH level in the kidney [4] | GSH level in the liver [4] | glutathione level of the liver [6] | other results |
| --- | --- | --- | --- | --- | --- | --- | --- | --- | --- | --- | --- | --- |
| CCCCCCOC(=O)CNC(=O)[C@H](CS)NC(=O)CC[C@H](N)C(=O)O [GSH mono-n-hexyl ester, n-Hexyl γ-L-glutamyl-L-cysteinylglycinate] | more than 2.0 μmol/g | more than 1.0 μmol/g | marked elevation | 100.6 ± 31.3% | 60.6 ± 15.8% | 13.2 ± 0.3% | 3.0 ± 0.3% | survived | substantial elevation | substantial elevation |  | percentage of blood GPT activity to that of Control Group ([2]; Dosage 0.03 mmol/kg i.p.): 82.3 ± 33.5% |
| CC(C)COC(=O)CNC(=O)[C@H](CS)NC(=O)CC[C@H](N)C(=O)O [GSH monoisobutyl ester, Isobutyl γ-L-glutamyl-L-cysteinylglycinate] | more than 2.0 μmol/g | more than 1.0 μmol/g | marked elevation | 84.1 ± 13.0% | 44.8 ± 14.8% |  | 3.6 ± 0.4% | survived | substantial elevation | substantial elevation |  |  |
| CC(C)OC(=O)CNC(=O)[C@H](CS)NC(=O)CC[C@H](N)C(=O)O [GSH monoisopropyl ester, Isopropyl γ-L-glutamyl-L-cysteinylglycinate] | more than 2.0 μmol/g | more than 1.0 μmol/g | marked elevation | 75.2 ± 15.0% | 19.8 ± 7.9% | 8.8 ± 3.5% | 3.8 ± 0.5% | survived | substantial elevation | substantial elevation |  | percentage of blood GPT activity to that of Control Group ([2]; Dosage 0.03 mmol/kg i.p.): 51.2 ± 15.6% |
| N[C@@H](CCC(=O)N[C@@H](CS)C(=O)NCC(=O)O)C(=O)O [GSH, L-γ-glutamyl-L-cysteinyl-glycine, reference compound] | 0.560 µmol/g | 0.582 µmol/g |  |  | 105.3 ± 20.1% | 68.5 ± 16.3% | 4.2 ± 0.5% |  | slight elevation | No elevation |  | glutathione in the kidney [5]: only a slight effect; glutathione level of the liver [5]: no effect |
| COC(=O)[C@@H](N)CS [L-cysteine methyl ester, reference compound] |  |  | markedly low |  |  |  |  |  |  |  | much less |  |
| N[C@@H](CS)C(=O)O [L-cysteine, reference compound] |  |  | markedly low |  |  |  |  |  |  |  | much less |  |
| CC(=O)Nc1ccc(O)cc1 [acetaminophen, reference compound] |  |  |  |  |  |  |  |  |  |  |  | level of liver glutathione after acetaminophen alone ([6]; sublethal dose 2.5 mmol/kg i.p., control given 0.15 M NaCl): marked decrease; GSH level in the liver after acetaminophen alone (GSH level in the liver; control group given 0.15 M saline): Marked fall; lethality of acetaminophen alone (mice [7]; 5 mmole per kilogram, 40 mice, within 7 days): all of the mice died |
| CCCCS(=N)(=O)CCC(N)C(=O)O (centres unmarked) [buthionine sulfoximine, reference compound] |  |  |  |  |  |  |  |  |  |  |  | glutathione level of the kidney after the inhibitor [8, 9]: decreased to a very low value; glutathione level of the liver after the inhibitor [8, 9]: decreased to a very low value |
| CCOC(=O)CNC(=O)[C@H](CS)NC(=O)CC[C@H](N)C(=O)O [glutathione monoethyl ester, L-γ-Glutamyl-L Cysteinyl Glycyl Ethyl Ester] |  |  |  |  |  |  |  |  |  |  |  | effects on tissue glutathione levels compared with glutathione monomethyl ester ([5]; comparison of monoethyl with monomethyl ester): about the same |
| COC(=O)CNC(=O)[C@H](CS)NC(=O)CC[C@H](N)C(=O)O [glutathione monomethyl ester] |  |  |  |  |  |  |  |  |  |  | increased markedly | glutathione in the kidney [5]: increased substantially; glutathione level of the liver [5]: increased substantially; glutathione level in kidney [8, 10]: substantial increase; glutathione level in liver [8, 10]: substantial increase; fatalities (mice [7]; acetaminophen 5 mmole per kilogram, ester 10 mmole per kilogram 1 hour later, 15 mice, 7 days): no fatalities |
